# Experiments:
# FLT3-ITD = target: T1, FLT3-ITD (Homo sapiens, UniProt P36888); experiment: FLT3-ITD recombinant enzyme kinase assay (AlphaScreen); format: biochemical; settings: 8 pt; read-out: FLT3_ITD 8 pt: IC50
# T1 sequence (P36888 1-993): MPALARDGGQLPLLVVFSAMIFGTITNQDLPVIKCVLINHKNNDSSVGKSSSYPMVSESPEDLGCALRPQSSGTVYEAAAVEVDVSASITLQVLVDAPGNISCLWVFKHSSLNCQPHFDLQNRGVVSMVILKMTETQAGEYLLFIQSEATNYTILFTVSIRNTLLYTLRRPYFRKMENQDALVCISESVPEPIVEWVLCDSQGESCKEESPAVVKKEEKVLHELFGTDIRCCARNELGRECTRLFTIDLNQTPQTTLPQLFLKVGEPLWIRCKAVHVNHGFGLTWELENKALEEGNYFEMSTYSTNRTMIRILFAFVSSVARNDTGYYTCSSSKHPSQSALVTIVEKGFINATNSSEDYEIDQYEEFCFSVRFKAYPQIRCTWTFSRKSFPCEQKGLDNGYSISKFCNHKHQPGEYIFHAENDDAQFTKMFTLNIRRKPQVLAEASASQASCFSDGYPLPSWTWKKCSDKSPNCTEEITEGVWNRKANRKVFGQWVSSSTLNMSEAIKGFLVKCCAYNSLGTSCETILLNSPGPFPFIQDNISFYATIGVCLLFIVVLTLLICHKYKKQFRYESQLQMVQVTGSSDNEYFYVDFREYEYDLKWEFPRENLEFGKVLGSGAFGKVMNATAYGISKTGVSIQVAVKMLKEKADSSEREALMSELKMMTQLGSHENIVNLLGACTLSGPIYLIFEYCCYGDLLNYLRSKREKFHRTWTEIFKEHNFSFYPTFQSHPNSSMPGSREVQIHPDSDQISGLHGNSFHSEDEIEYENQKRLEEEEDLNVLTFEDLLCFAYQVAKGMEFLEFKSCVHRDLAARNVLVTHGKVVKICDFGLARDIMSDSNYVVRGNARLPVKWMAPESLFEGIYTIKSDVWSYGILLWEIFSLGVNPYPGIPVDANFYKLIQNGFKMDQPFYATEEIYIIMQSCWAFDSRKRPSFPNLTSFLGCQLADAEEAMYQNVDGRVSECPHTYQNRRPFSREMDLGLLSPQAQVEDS
# How it was run: (§1)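 Recombinant kinase phosphorylates 30 nM biotinylated poly(Glu4-Tyr) peptide; ATP is 10 μM for FLT3-ITD and FLT3-D835Y, 100 μM for c-KIT. Phosphotyrosine detected by AlphaScreen (streptavidin donor, PY20 acceptor beads, 10 μg/mL), 580 nm signal after 680 nm excitation; IC50 from signal decrease.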
# FLT3-D835Y = target: T2, FLT3-D835Y (Homo sapiens, UniProt P36888, D835Y); experiment: FLT3-D835Y recombinant enzyme kinase assay (AlphaScreen); format: biochemical; settings: 8 pt, GMean
# T2 construct: purchased Invitrogen PV3967
# T2 sequence (P36888 27-993 D835Y): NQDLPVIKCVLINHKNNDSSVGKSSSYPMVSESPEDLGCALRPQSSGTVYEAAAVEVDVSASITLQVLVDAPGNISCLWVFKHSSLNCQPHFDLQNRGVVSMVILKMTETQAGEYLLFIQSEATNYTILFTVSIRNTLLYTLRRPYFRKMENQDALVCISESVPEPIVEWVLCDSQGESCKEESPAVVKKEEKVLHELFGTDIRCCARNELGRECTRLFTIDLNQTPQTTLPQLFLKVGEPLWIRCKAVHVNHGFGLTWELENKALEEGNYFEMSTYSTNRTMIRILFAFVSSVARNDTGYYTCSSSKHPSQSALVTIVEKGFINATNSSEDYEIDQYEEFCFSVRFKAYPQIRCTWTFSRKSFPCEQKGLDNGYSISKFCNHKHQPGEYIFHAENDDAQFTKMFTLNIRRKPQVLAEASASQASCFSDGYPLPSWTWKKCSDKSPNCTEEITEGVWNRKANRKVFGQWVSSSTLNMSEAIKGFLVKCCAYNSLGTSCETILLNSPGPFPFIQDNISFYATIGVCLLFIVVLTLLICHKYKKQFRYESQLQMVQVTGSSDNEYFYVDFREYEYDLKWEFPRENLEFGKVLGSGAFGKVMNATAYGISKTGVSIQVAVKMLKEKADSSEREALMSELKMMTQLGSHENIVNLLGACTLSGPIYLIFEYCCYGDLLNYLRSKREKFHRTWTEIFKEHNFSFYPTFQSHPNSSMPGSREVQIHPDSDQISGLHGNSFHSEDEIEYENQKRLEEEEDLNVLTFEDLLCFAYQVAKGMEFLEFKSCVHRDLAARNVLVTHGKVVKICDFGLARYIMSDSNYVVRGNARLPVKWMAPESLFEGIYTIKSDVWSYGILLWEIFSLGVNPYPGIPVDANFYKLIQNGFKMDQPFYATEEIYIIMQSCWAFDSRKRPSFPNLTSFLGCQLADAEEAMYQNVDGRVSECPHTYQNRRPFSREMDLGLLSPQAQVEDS
# How it was run: as §1
SMILES,IC50 (FLT3-ITD) [µM],IC50 (FLT3-D835Y) [µM]
"Cc1nn(C)cc1Nc1ncc(-c2ccc(CC(=O)Nc3cnc(C)c(C(F)(F)F)c3)cc2)cn1 [Compound P-0228, 2-[4-[2-[(1,3-dimethylpyrazol-4-yl)amino]pyrimidin-5-yl]phenyl]-N-[6-methyl-5-(trifluoromethyl)-3-pyridyl]acetamide]",0.0001 to 10,0.0001 to 10
"Cc1ncc(NC(=O)Cc2ccc(-c3cnc(Nc4cnn(C)c4C)nc3)cc2)cc1C(F)(F)F [Compound P-0229, 2-[4-[2-[(1,5-dimethylpyrazol-4-yl)amino]pyrimidin-5-yl]phenyl]-N-[6-methyl-5-(trifluoromethyl)-3-pyridyl]acetamide]",0.0001 to 10,0.0001 to 10
"COc1ncc(NC(=O)Cc2ccc(-c3cnc4[nH]nc(Cl)c4c3)cc2)cc1C(F)(F)F [Compound P-0230, 2-[4-(3-chloro-1H-pyrazolo[3,4-b]pyridin-5-yl)phenyl]-N-[6-methoxy-5-(trifluoromethyl)-3-pyridyl]acetamide]",0.0001 to 10,0.0001 to 10
"O=C(Cc1ccc(-c2cnc(Nc3cnn(C4CC4)c3)nc2)cc1)Nc1cncc(C(F)(F)F)c1 [Compound P-0231, 2-[4-[2-[(1-cyclopropylpyrazol-4-yl)amino]pyrimidin-5-yl]phenyl]-N-[5-(trifluoromethyl)-3-pyridyl]acetamide]",0.0001 to 10,0.0001 to 10
"Cc1ncc(NC(=O)Cc2ccc(-c3cnc(Nc4cnn(C5CC5)c4)nc3)cc2)cc1C(F)(F)F [Compound P-0232, 2-[4-[2-[(1-cyclopropylpyrazol-4-yl)amino]pyrimidin-5-yl]phenyl]-N-[6-methyl-5-(trifluoromethyl)-3-pyridyl]acetamide]",0.0001 to 10,0.0001 to 10
"O=C(Cc1ccc(-c2cnc(Nc3cnn(C4CC4)c3)nc2)cc1)Nc1cnc(Cl)c(C(F)(F)F)c1 [Compound P-0233, N-[6-chloro-5-(trifluoromethyl)-3-pyridyl]-2-[4-[2-[(1-cyclopropylpyrazol-4-yl)amino]pyrimidin-5-yl]phenyl]acetamide]",0.0001 to 10,0.0001 to 10
"COc1ncc(NC(=O)Cc2ccc(-c3cnc(Nc4cnn(C5CC5)c4)nc3)cc2)cc1C(F)(F)F [Compound P-0234, 2-[4-[2-[(1-cyclopropylpyrazol-4-yl)amino]pyrimidin-5-yl]phenyl]-N-[6-methoxy-5-(trifluoromethyl)-3-pyridyl]acetamide]",0.0001 to 10,0.0001 to 10
"O=C(Cc1ccc(-c2cnc(Nc3cnn(C4CC4)c3)nc2)cc1)Nc1ccc(C(F)(F)F)nc1 [Compound P-0235, 2-[4-[2-[(1-cyclopropylpyrazol-4-yl)amino]pyrimidin-5-yl]phenyl]-N-[6-(trifluoromethyl)-3-pyridyl]acetamide]",0.0001 to 10,0.0001 to 10
"O=C(Cc1ccc(-c2cnc(Nc3cnn(C4CC4)c3)nc2)cc1)Nc1ccc(C(F)(F)F)cn1 [Compound P-0236, 2-[4-[2-[(1-cyclopropylpyrazol-4-yl)amino]pyrimidin-5-yl]phenyl]-N-[5-(trifluoromethyl)-2-pyridyl]acetamide]",0.0001 to 10,0.0001 to 10

# The next lines start with the values.
IC50 (FLT3-ITD) [µM],IC50 (FLT3-D835Y) [µM],SMILES
0.0001 to 10,0.0001 to 10,"COc1ncc(NC(=O)Cc2ccc(-c3cnc4[nH]nc(OC)c4c3)cc2)cc1C(F)(F)F [Compound P-0212, 2-[4-(3-methoxy-1H-pyrazolo[3,4-b]pyridin-5-yl)phenyl]-N-[6-methoxy-5-(trifluoromethyl)-3-pyridyl]acetamide]"
0.0001 to 10,0.0001 to 10,"CCOc1n[nH]c2ncc(-c3ccc(CC(=O)Nc4cnc(OC)c(C(F)(F)F)c4)cc3)cc12 [Compound P-0213, 2-(4-(3-ethoxy-1H-pyrazolo[3,4-b]pyridin-5-yl)phenyl)-N-(6-methoxy-5-(trifluoromethyl)pyridin-3-yl)acetamide]"
0.0001 to 10,0.0001 to 10,"COc1ncc(NC(=O)Cc2ccc(-c3cnc4[nH]c(C#CC(C)(C)O)cc4c3)cc2)cc1C(F)(F)F [Compound P-0214, 2-(4-(2-(3-hydroxy-3-methylbut-1-yn-1-yl)-1H-pyrrolo[2,3-b]pyridin-5-yl)phenyl)-N-(6-methoxy-5-(trifluoromethyl)pyridin-3-yl)acetamide]"
0.0001 to 10,0.0001 to 10,"COc1ncc(NC(=O)Cc2ccc(-c3cnc4[nH]nc(NC(=O)C(F)(F)F)c4c3)cc2)cc1C(F)(F)F [Compound P-0215, 2,2,2-trifluoro-N-[5-[4-[2-[[6-methoxy-5-(trifluoromethyl)-3-pyridyl]amino]-2-oxo-ethyl]phenyl]-1H-pyrazolo[3,4-b]pyridin-3-yl]acetamide]"
0.0001 to 10,0.0001 to 10,"COc1ncc(NC(=O)Cc2ccc(-c3cnc4[nH]nc(N)c4c3)cc2)cc1C(F)(F)F [Compound P-0216, 2-(4-(3-amino-1H-pyrazolo[3,4-b]pyridin-5-yl)phenyl)-N-(6-methoxy-5-(trifluoromethyl)pyridin-3-yl)acetamide]"
0.0001 to 10,0.0001 to 10,"CCOc1n[nH]c2ncc(-c3ccc(CC(=O)Nc4cnc(C)c(C(F)(F)F)c4)cc3)cc12 [Compound P-0217, 2-[4-(3-ethoxy-1H-pyrazolo[3,4-b]pyridin-5-yl)phenyl]-N-[6-methyl-5-(trifluoromethyl)-3-pyridyl]acetamide]"
0.0001 to 10,0.0001 to 10,"COc1n[nH]c2ncc(-c3ccc(CC(=O)Nc4cnc(C)c(C(F)(F)F)c4)cc3)cc12 [Compound P-0218, 2-[4-(3-methoxy-1H-pyrazolo[3,4-b]pyridin-5-yl)phenyl]-N-[6-methyl-5-(trifluoromethyl)-3-pyridyl]acetamide]"
0.0001 to 10,0.0001 to 10,"Cc1ncc(NC(=O)Cc2ccc(-c3cnc4[nH]c(C#CC(C)(C)O)cc4c3)cc2)cc1C(F)(F)F [Compound P-0220, 2-[4-[2-(3-hydroxy-3-methyl-but-1-ynyl)-1H-pyrrolo[2,3-b]pyridin-5-yl]phenyl]-N-[6-methyl-5-(trifluoromethyl)-3-pyridyl]acetamide]"
0.0001 to 10,0.0001 to 10,"COc1ncc(NC(=O)Cc2ccc(-c3cnc(Nc4cn[nH]c4C)nc3)cc2)cc1C(F)(F)F [Compound P-0221, N-[6-methoxy-5-(trifluoromethyl)-3-pyridyl]-2-[4-[2-[(5-methyl-1H-pyrazol-4-yl)amino]pyrimidin-5-yl]phenyl]acetamide]"
0.0001 to 10,0.0001 to 10,"COCCn1cc(Nc2ncc(-c3ccc(CC(=O)Nc4cc(C(F)(F)F)ccn4)cc3)cn2)cn1 [Compound P-0222, 2-[4-[2-[[1-(2-methoxyethyl)pyrazol-4-yl]amino]pyrimidin-5-yl]phenyl]-N-[4-(trifluoromethyl)-2-pyridyl]acetamide]"
0.0001 to 10,0.0001 to 10,"COc1ncc(NC(=O)Cc2ccc(-c3cnc4[nH]c(C#Cc5cncn5C)cc4c3)cc2)cc1C(F)(F)F [Compound P-0227, N-[6-methoxy-5-(trifluoromethyl)-3-pyridyl]-2-[4-[2-[2-(3-methylimidazol-4-yl)ethynyl]-1H-pyrrolo[2,3-b]pyridin-5-yl]phenyl]acetamide]"

# From US10160747B2, “Compounds and methods for kinase modulation, and indications therefor” (Plexxikon Inc., priority 2016, dated 2018)
